Source: patent US10174081B2, “Antimicrobial peptides and uses therefore” (priority 2011, dated 2019)
≈ marks a conversion by molar mass, not a printed value. Where “and” joins values, the source holds several entries; their conditions need not be identical. Equal entries are not always repeated. Square brackets hold non-standard residues; d marks the D form. Ends that are not written are not given here. Peptide text beside a SMILES is read from it.

Columns and labels:
S. aureus (ATCC 25923) = test: Anti-microbial assay (CFU survival, EC50) against S. aureus; assay type: cell-based, Staphylococcus aureus; settings: for EC50 against S. aureus, preliminary studies: Example 4, FIG. 10
Procedure: S. aureus (ATCC 25923, American Type Culture Collection, Manassas, Va.) was grown in Nutrient Broth (Difco Laboratories, Detroit, Mich.) at pH 7, 37° C., for 24 hours with shaking at 200 rpm. The overnight culture was frozen with 20% glycerol and stored at −80° C. The frozen stock was enumerated (CFU/ml) by dilution plating and growth on Nutrient Agar plates.
For anti-microbial assays, frozen enumerated aliquots were thawed and gently mixed immediately before use. […] Negative control wells contained bacteria with no peptide. […] The EC50 was calculated as previously described (de Latour et al., supra).
Errors were reported based on the standard deviation from the mean of the log10 EC50 values (Gordon et al., supra). 95% confidence intervals were used to determine whether points were statistically different at p=0.05.

C. albicans (ATCC 14053) = test: Anti-microbial assay (CFU survival, EC50) against C. albicans; assay type: cell-based, Candida albicans; settings: for EC50 against C. albicans: 3 hours, 37° C., 10 mM sodium phosphate pH 7.4, inconsistent colony growth; for Inhibition of C. albicans: at 500 and 100 μg; for EC50: converted with molecular weight
Procedure: C. albicans (ATCC 14053) was grown up in 25 mL of Sabouraud Dextrose (SO) broth for 48 hours at 25° C., after which samples were aliquoted into 2 mL microcentrifuge tubes at 0.5 mL.
On a 96-well plate, 1×10^4 CFU per well of C. albicans were incubated with different peptide concentrations (in serial dilutions of 1:10 and 1:5) starting with […] in a solution of buffer containing 10 mM sodium phosphate at pH 7.4 (3 hours, 37° C.). Serial dilutions were then carried out in 1× Dulbecco's PBS, and samples were plated in triplicate on Sabouraud Dextrose Agar plates, incubated (25° C., 48 hours) and CFUs were counted. C. albicans survival at each peptide concentration was calculated as previously described (Amer et al., supra; de Latour et al., supra), based on the percentage of the number of colonies in each experimental plate relative to the average number of colonies observed for assay cultures lacking peptide. […] In the equation, “Top” and “Bottom” refer to the upper and lower boundaries, and were constrained to values <100% and >0%, respectively. For graphing purposes, samples that had no peptide were plotted at 10^−9 μg/ml peptide. EC50 values were determined by fitting the data from the anti-microbial assays to a standard sigmoidal dose-response curve. Errors were reported based on the standard deviation from the mean of the log EC50 values. 2. Results

S. aureus biofilm = test: Biofilm production (crystal violet) and growth (OD600) of S. aureus in TSB; assay type: cell-based, Staphylococcus aureus
Procedure: Biofilm production was measured as previously described (Durham-Colleran et al., supra) with the following modifications. […] The positive control was S. aureus in TSB with no peptide. Six wells were used for each peptide concentration (n=6). After 24 hours, the optical densities (OD) of the wells were taken at 600 nm to quantify […]. The biofilm production was measured using the crystal violet stain technique (Durham-Colleran et al., supra). All experiments were repeated at least twice.

[1] = system: P. aeruginosa (ATCC 19429); test: Anti-microbial assay (CFU survival, EC50) against P. aeruginosa; assay type: cell-based, Pseudomonas aeruginosa; settings: Example 6, FIG. 16; unit not given
Procedure: P. aeruginosa (ATCC 19429, American Type Culture Collection, Manassas, Va.) was grown in Nutrient Broth (Difco Laboratories, Detroit, Mich.) at 37° C. for 24 hours with shaking at 200 rpm. The CFU/ml was determined by growth on Nutrient Agar plates. For anti-microbial assays, frozen enumerated aliquots were thawed immediately before use.
Each experiment was repeated at least twice, and a representative experiment is shown, for clarity.

A. baumannii = settings: Example 5, Table 9
Procedure: Anti-microbial activity was determined for each peptide isomer by enumerating the number of viable colony forming units after incubating bacteria in media containing varied concentrations of peptide.

B. cereus (ATCC 11778) = test: Anti-microbial performance against B. cereus, with and without FICOLL 70; assay type: cell-based; settings: for fold increase in potency against B. cereus: 20% FICOLL 70 versus none
P. aeruginosa biofilm [2] = test: Biofilm production (crystal violet) and growth (OD600) of P. aeruginosa in TSB; assay type: cell-based, Pseudomonas aeruginosa
Procedure: Biofilm production was measured as previously described (Durham-Colleran et al. (2010) Microb. Ecol., 59(3):457-465) with the following modifications. P. aeruginosa (1×10^5 CFU) in 200 μl of TSB media (Trypticase Soy Broth) was incubated with peptide at concentrations of 1.0, 0.1, and 0.01 μg/ml for 24 hours at 37° C. (Table 2). Optical density of the cultures (OD600 nm) at 24 hours was determined prior to staining as a measure of bacterial growth. Six wells were used for each peptide concentration (n=6). Biofilm production was measured using the crystal violet stain technique (Durham-Colleran et al., supra).

E. coli (ATCC 25922) = test: Anti-microbial performance against E. coli, with and without FICOLL 70; assay type: cell-based, Escherichia coli; settings: for Average EC50, E. coli: unit inferred; for fold increase in potency against E. coli: 20% FICOLL 70 versus none; for Anti-microbial performance of ATRA-1A isomers (EC50) E coli (ATCC 25922): Example 5, Table 9
Procedure: In these assays, bacteria (1×10^5 CFU/ml) were incubated for 3 hours at 37° C. with varied concentrations of peptide in 10 mM phosphate buffer (pH 7.4) containing 0 to 30% FICOLL™ 70. The potencies of the peptide isomers were determined by plotting bacterial survival (%) as a function of log peptide concentration and fitting the data to a standard dose response equation. Each experiment was conducted at least three times, with the exception of experiments with 15% and 30% FICOLL™, which were only performed once.

P. aeruginosa = test: Galleria mellonella infection by P. aeruginosa with AMP and antibiotic treatments; assay type: in vivo; settings: single dose: 5 μg ciprofloxacin or 10 μg peptide
Procedure: Galleria mellonella (wax moth caterpillars) were obtained from Vanderhorst Wholesale (Saint Marys, Ohio). Eight to twelve caterpillars of equal size/weight were randomly assigned to each group. A 1 mL tuberculin syringe was used to inject 10 μl of 1×10^3 CFU/ml of P. aeruginosa into each caterpillar via the last left proleg. […] Caterpillar control groups included: injected with only PBS, ciprofloxacin, or AMPs. The insects were then observed daily for their survival status.

S. aureus = test: Biofilm attachment assay; assay type: cell-based, Staphylococcus aureus; settings: 1 μg/ml peptide, 1 hour, 37° C.
Procedure: Biofilm attachment assays were performed in 96-well microtiter plates (BD Falcon 353072) as previously described (Overhage et al., supra). Overnight cultures of S. aureus were grown in TSB to an OD600 of about 1.0. […] The plates were incubated (1 hour, 37° C.) to allow the S. aureus to adhere to the wells. The wells were washed and OD600 measurements were taken, as in the biofilm production experiments, and the average absorbance for each treatment was determined (n=16).

P. aeruginosa biofilm [3] = settings: Overhage et al.; cited from earlier work

In the case of CC(C)C[C@@H](NC(=O)[C@@H](CCCCN)NC(=O)[C@@H](CCCCN)NC(=O)[C@@H](Cc1ccccc1)NC(=O)[C@@H](Cc1ccccc1)NC(=O)[C@@H](CCCCN)NC(=O)[C@@H](CCCCN)NC(=O)[C@@H](C)NC(=O)[C@@H](CCCNC(=N)N)NC(=O)[C@H](N)CCCCN)C(=O)N[C@H](CCCCN)C(N)=O [D-ATRA-1A] (H-[dK][dR][dA][dK][dK][dF][dF][dK][dK][dL][dK]-NH2; N-terminus assumed), the “fold difference in activities of L- and D-ATRA-1A against S. aureus” value (S. aureus (ATCC 25923); D less effective than L) is reported as 30 fold, the “EC50 against S. aureus, preliminary studies” value (S. aureus (ATCC 25923)) is reported as 6.97 µg/mL (≈ 4.91 µM) and the “EC50 against S. aureus, two best data sets” value (S. aureus (ATCC 25923); Example 6, FIGS. 14 and 15, left and right panels) is reported as 26.53 µg/mL and 25.02 µg/mL. The “EC50 against C. albicans” value (C. albicans (ATCC 14053)) was 22.10 µg/mL (≈ 15.6 µM), the “Inhibition of C. albicans” value (C. albicans (ATCC 14053)) was “consistently seen” and the EC50 (C. albicans (ATCC 14053)) was 15.6 µM. For the same compound, the “inhibiting biofilm growth, D- versus L-ATRA-1A” value (S. aureus biofilm; 1 μg/ml, FIG. 20) was “more effective at inhibiting biofilm growth”, the “average EC50 against P. aeruginosa” value [1] was 9.643 (CI 6.5 to 14.2) and the “Anti-microbial performance of ATRA-1A isomers (EC50) A. baumannii” value (A. baumannii) was 9.73 µg/mL. For the same compound, the “fold increase in potency against B. cereus” value (B. cereus (ATCC 11778)) was 54.34 fold, the “EC50 with 20% FICOLL 70, B. cereus” value (B. cereus (ATCC 11778)) was 0.0406 µg/mL and the “EC50 without FICOLL 70, B. cereus” value (B. cereus (ATCC 11778)) was 2.330 µg/mL. For the same compound, the “inhibiting biofilm growth, D- versus L-ATRA-1A” value (P. aeruginosa biofilm [2]; 1 μg/ml, FIG. 20) was “more effective at inhibiting biofilm growth”, the Average EC50, E. coli (E. coli (ATCC 25922); 0% FICOLL 70) was 1.3 µg/mL and the Average EC50, E. coli (E. coli (ATCC 25922); 5% FICOLL 70) was 0.71 µg/mL. It also gave an Average EC50, E. coli (E. coli (ATCC 25922); 10% FICOLL 70) of 0.24 µg/mL, an Average EC50, E. coli (E. coli (ATCC 25922); 15% FICOLL 70, performed once) of 0.1 µg/mL and an Average EC50, E. coli (E. coli (ATCC 25922); 20% FICOLL 70) of 0.085 µg/mL. For the same compound, the “fold increase in potency against E. coli” value (E. coli (ATCC 25922)) was 13.66 fold, the Average EC50, E. coli (E. coli (ATCC 25922); 30% FICOLL 70, performed once) was 0.01 µg/mL and the “Anti-microbial performance of ATRA-1A isomers (EC50) E coli (ATCC 25922)” value (E. coli (ATCC 25922)) was 1.302 µg/mL. For the same compound, the “EC50 with 20% FICOLL 70, E. coli” value (E. coli (ATCC 25922)) was 0.0850 µg/mL and the “EC50 without FICOLL 70, E. coli” value (E. coli (ATCC 25922)) was 1.302 µg/mL.

In the case of O=C(O)c1cn(C2CC2)c2cc(N3CCNCC3)c(F)cc2c1=O [ciprofloxacin], the “effect on survival of infected G. mellonella” value (P. aeruginosa) is reported as “effective” and the “survival of P. aeruginosa-infected G. mellonella” value (P. aeruginosa; 1×10^3 CFU) is reported as 55%.

With “GLKLRFEFSKIKGEFLKTPEVRFRDIKLKDNRISVQR [Scrambled LL-37, reference compound]” the “inhibition of biofilm formation” value (S. aureus biofilm; TSB, concentrations without anti-microbial activity) was “no inhibition of biofilm formation”, the “attachment of S. aureus to polystyrene wells” value (S. aureus) was “did not decrease” and the “inhibition of biofilm formation” value (P. aeruginosa biofilm [2]; TSB, any concentration tested (up to 1 μg/ml)) was “no inhibition of biofilm formation”.

For “GLLRKGGEKIGEKLKKIGQKIKNFFQKLVPQPEQ [mCRAMP]”, the “inhibitory effect on biofilm formation, previously known” value (P. aeruginosa biofilm [3]) is listed as “no inhibitory effect”.

For KRAKKFFKKLK-NH2 [ATRA-1A], the “EC50 of AMPs against S. aureus” value (S. aureus (ATCC 25923); 3 hours, 37° C., 10 mM sodium phosphate pH 7.4, ± standard deviation) was 1.45 ± 1.5 µg/mL, the “EC50 against S. aureus, preliminary studies” value (S. aureus (ATCC 25923)) was 0.27 µg/mL and the “Anti-microbial performance of ATRA-1A isomers (EC50) S. aureus” value (S. aureus (ATCC 25923); Example 5, Table 9) was 1.45 µg/mL. The EC50 (S. aureus (ATCC 25923); converted from μg/ml with molecular weight of TFA salt) was 0.62 µM, the “EC50 against C. albicans” value (C. albicans (ATCC 14053)) was 33.38 µg/mL and the “Inhibition of C. albicans” value (C. albicans (ATCC 14053)) was “consistently seen”. For the same compound, the EC50 (C. albicans (ATCC 14053)) was 23.5 µM, the “average EC50 against P. aeruginosa” value [1] was 14.22 (CI 10.4 to 19.4) and the “Anti-microbial performance of ATRA-1A isomers (EC50) A. baumannii” value (A. baumannii) was 53.25 µg/mL. The “fold increase in potency against B. cereus” value (B. cereus (ATCC 11778)) was 14 fold, the “EC50 with 20% FICOLL 70, B. cereus” value (B. cereus (ATCC 11778)) was 5.207 µg/mL and the “EC50 without FICOLL 70, B. cereus” value (B. cereus (ATCC 11778)) was 72.41 µg/mL. For the same compound, the Average EC50, E. coli (E. coli (ATCC 25922); 0% FICOLL 70) was 2.9 µg/mL, the Average EC50, E. coli (E. coli (ATCC 25922); 5% FICOLL 70) was 1.6 µg/mL and the Average EC50, E. coli (E. coli (ATCC 25922); 10% FICOLL 70) was 0.86 µg/mL. The Average EC50, E. coli (E. coli (ATCC 25922); 15% FICOLL 70, performed once) was 0.64 µg/mL, the Average EC50, E. coli (E. coli (ATCC 25922); 20% FICOLL 70) was 0.42 µg/mL and the “fold increase in potency against E. coli” value (E. coli (ATCC 25922)) was 10.66 fold. The Average EC50, E. coli (E. coli (ATCC 25922); 30% FICOLL 70, performed once) was 0.29 µg/mL, the “Anti-microbial performance of ATRA-1A isomers (EC50) E coli (ATCC 25922)” value (E. coli (ATCC 25922)) was 4.323 µg/mL and the “EC50 with 20% FICOLL 70, E. coli” value (E. coli (ATCC 25922)) was 0.420 µg/mL. For the same compound, the “EC50 without FICOLL 70, E. coli” value (E. coli (ATCC 25922)) was 4.232 µg/mL.
